Source: US20250353873A1, “COMPOUNDS AND METHODS FOR MODULATING APOE EXPRESSION” (Ionis Pharmaceuticals, Inc., priority 2024, published 2025)
Strand notation (5' to 3'): a small letter for the sugar, then the base; units joined by * are phosphorothioate-linked, units joined directly phosphodiester-linked; [ ] holds rarer units or linkages, { } end groups; capitals alone tell only the bases. [ms] = mesyl phosphoramidate linkage; e = 2'-O-(2-methoxyethyl) (MOE); k = constrained ethyl (cEt); [5mC] = 5-methylcytosine; d = 2'-deoxy (DNA)

Assays:
human APOE RNA [1] = assay: Activity in APOE C57BL/6NTac-Apoeem7250 knock-in mice, single ICV bolus, 8 weeks (Example 11); type: in vivo; details: single ICV bolus 300 μg, 8 weeks post treatment, normalized to mouse Ppia
Protocol: (§1) Modified oligonucleotides described above were tested in the APOE C57BL/6NTac-Apoeem7250 knock-in mouse model described above.
Each mouse received a single ICV bolus of 300 μg of modified oligonucleotide. A group of 3-4 mice received a single ICV bolus with PBS as a negative control.
(§2) Eight weeks post treatment, mice were sacrificed and RNA was extracted from cortical brain tissue and spinal cord for quantitative real-time RT-PCR analysis of RNA expression of APOE using human primer probe set RTS3073 (described herein above). APOE RNA levels were normalized to mouse Ppia. Mouse Ppia was amplified using primer probe set m_cyclo24 (described herein above). Results are presented as percent human APOE RNA relative to the amount of human APOE RNA in PBS treated animals, (% control). Each experiment is identified in separate tables below.

human APOE RNA [2] = assay: Activity in APOE C57BL/6NTac-Apoeem7250 knock-in mice, single ICV bolus, 16 weeks (Example 12); type: in vivo; details: single ICV bolus 300 μg, 16 weeks post treatment, normalized to mouse Ppia
Protocol: as §1
APOE C57BL/6NTac-Apoeem7250 knock-in mice were divided into groups of 3-4 mice each. Each mouse received a single intracerebroventricular (ICV) bolus of 300 μg of modified oligonucleotide. A group of 4 mice received a single ICV bolus with PBS as a negative control.
as §2, with “Sixteen” for “Eight”, “using” for “using human”

Substance | APOE RNA (% control) Cortex (human APOE RNA [1]) | APOE RNA (% control) Spinal Cord (human APOE RNA [1]) | APOE RNA (% control) Cortex (human APOE RNA [2]) | APOE RNA (% control) Spinal Cord (human APOE RNA [2])
1809741: mixed MOE/cEt gapmer CTTGGTGAATCTTTATTAAAC, sugar eeeeekddddddddddeeeee, linkages ssoooszzsssssszsooss (e[5mC]*eT*eTeGeGkT*dG[ms]dA[ms]dA*dT*d[5mC]*dT*dT*dT*dA[ms]dT*eTeAeA*eA*e[5mC]) [compound 1809741] | 33 % control | 28 % control | – | –
1652918: 6-10-4 MOE gapmer GGTGAATCTTTATTAAACTA, linkages sooooozzzsssssssoss (antisense eG*eGeTeGeAeAdT[ms]d[5mC][ms]dT[ms]dT*dT*dA*dT*dT*dA*dA*eAe[5mC]*eT*eA) [compound 1652918] | 91 % control | 47 % control | – | –
1652899: 6-10-4 MOE gapmer TGGTGAATCTTTATTAAACT, linkages sooooossssssssssoss (antisense eT*eGeGeTeGeAdA*dT*d[5mC]*dT*dT*dT*dA*dT*dT*dA*eAeA*e[5mC]*eT) [compound 1652899] | 57 % control | 16 % control | – | –
1652919: 6-10-4 MOE gapmer GGTGAATCTTTATTAAACTA, linkages soooooszzzssssssoss (antisense eG*eGeTeGeAeAdT*d[5mC][ms]dT[ms]dT[ms]dT*dA*dT*dT*dA*dA*eAe[5mC]*eT*eA) [compound 1652919] | 90 % control | 54 % control | – | –
1652912: 5-10-5 MOE gapmer GGTGAATCTTTATTAAACTA, linkages sooossssssszsszooss (antisense eG*eGeTeGeA*dA*dT*d[5mC]*dT*dT*dT*dA[ms]dT*dT*dA[ms]eAeAe[5mC]*eT*eA) [compound 1652912] | 95 % control | 41 % control | – | –
1693103: 6-10-4 MOE gapmer CTTGGTGAATCTTTATTAAA, linkages sssosszzzssssszssss (e[5mC]*eT*eT*eGeG*eT*dG[ms]dA[ms]dA[ms]dT*d[5mC]*dT*dT*dT*dA[ms]dT*eT*eA*eA*eA) [compound 1693103] | – | – | 84 % control | 56 % control
1693140: 6-10-4 MOE gapmer ACTTGGTGAATCTTTATTAA, linkages sssssoszzzssssszoss (eA*e[5mC]*eT*eT*eG*eGdT*dG[ms]dA[ms]dA[ms]dT*d[5mC]*dT*dT*dT*dA[ms]eTeT*eA*eA) [compound 1693140] | – | – | 109 % control | 68 % control
1693141: 6-10-4 MOE gapmer ACTTGGTGAATCTTTATTAA, linkages ssssooszzzssssszsss (eA*e[5mC]*eT*eT*eGeGdT*dG[ms]dA[ms]dA[ms]dT*d[5mC]*dT*dT*dT*dA[ms]eT*eT*eA*eA) [compound 1693141] | – | – | 82 % control | 66 % control
1693063: 5-10-5 MOE gapmer TTGGTGAATCTTTATTAAAC, linkages ssssszzzsssszzsssss (antisense eT*eT*eG*eG*eT*dG[ms]dA[ms]dA[ms]dT*d[5mC]*dT*dT*dT[ms]dA[ms]dT*eT*eA*eA*eA*e[5mC]) [compound 1693063] | – | – | 97 % control | 87 % control
1693066: 5-10-5 MOE gapmer ACTTGGTGAATCTTTATTAA, linkages sssssssszzsssssooss (antisense eA*e[5mC]*eT*eT*eG*dG*dT*dG*dA[ms]dA[ms]dT*d[5mC]*dT*dT*dT*eAeTeT*eA*eA) [compound 1693066] | – | – | 88 % control | 73 % control
1693142: 6-10-4 MOE gapmer ACTTGGTGAATCTTTATTAA, linkages sssoosszzzssssszsss (eA*e[5mC]*eT*eTeGeG*dT*dG[ms]dA[ms]dA[ms]dT*d[5mC]*dT*dT*dT*dA[ms]eT*eT*eA*eA) [compound 1693142] | – | – | 98 % control | 92 % control
